Data on four molecules can be found in patent US20090227620A1, “ANTI-INFLAMMATORY COMPOUNDS” (priority 2005, published 2009).

Data set [1] relates to irritant contact dermatitis elicited with tetradecanoylphorbol-13-acetate (TPA) on ears of mice. Kind of data set: Anti-Inflammatory Test System (TPA-elicited irritant contact dermatitis, mouse ear). Particulars: for anti-inflammatory activity (in words): mouse, in vivo; for inhibition in % (auricular weight, inflammatory swelling): topical 10 μl, 30 min before TPA, read 6 hours after. Type of data set: in vivo, strain NMRI. The protocol:
The test sites on the inner surface of the right external ears of mice, e.g. strain NMRI, (8 per group) are treated with 10 μl of the dissolved test compound or with the vehicle (a 4:4:2 mixture of ethanol/acetone/dimethylacetamide) alone. The test compounds are applied at concentrations shown in the TEST RESULT TABLE. Thirty minutes after the treatment irritant contact dermatitis is elicited at the treated auricular sites with 10 μl 0.005% tetradecanoylphorbol-13-acetate (TPA). Skin inflammation is assessed 6 hours after the elicitation by determination of the auricular weights, as a measure of inflammatory swelling. The animals are killed and both ears are cut off and weighed. Inhibitory activity of test compounds is calculated from differences in right and left ears (internal controls) in mice treated with the test compounds compared with animals treated with the vehicle only. Results obtained are as set out in TEST RESULT TABLE below: In the TEST RESULT TABLE the concentrations of the compounds (in bold) used are indicated in micromol/litre. The values given in the TEST RESULT TABLE (in regular letters) are the inhibition in % determined according to the ANTI-INFLAMMATORY TEST SYSTEM used.

Data set [2] addresses T1, purified human steroid sulfatase (Homo sapiens, UniProt P08842).
T1 sequence (P08842 22-583): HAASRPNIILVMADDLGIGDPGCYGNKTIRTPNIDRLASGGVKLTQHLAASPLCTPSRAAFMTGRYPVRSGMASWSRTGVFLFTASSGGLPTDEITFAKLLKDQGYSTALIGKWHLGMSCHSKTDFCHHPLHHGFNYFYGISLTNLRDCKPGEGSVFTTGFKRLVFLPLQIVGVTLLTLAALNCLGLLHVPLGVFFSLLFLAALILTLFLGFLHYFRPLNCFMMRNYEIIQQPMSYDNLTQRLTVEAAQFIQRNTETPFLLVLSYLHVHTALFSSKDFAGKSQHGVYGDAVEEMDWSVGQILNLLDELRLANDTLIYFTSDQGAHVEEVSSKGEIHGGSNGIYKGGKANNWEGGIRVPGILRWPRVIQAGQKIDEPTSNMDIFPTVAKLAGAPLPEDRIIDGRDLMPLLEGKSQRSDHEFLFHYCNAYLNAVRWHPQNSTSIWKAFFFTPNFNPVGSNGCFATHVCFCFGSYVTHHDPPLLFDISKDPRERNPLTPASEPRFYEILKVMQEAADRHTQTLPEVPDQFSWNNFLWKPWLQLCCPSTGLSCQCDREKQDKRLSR
Kind of data set: Assay of Human Steroid Sulfatase (4-methylumbelliferyl sulfate cleavage, fluorescence). Conditions: reference compound, determined in parallel to test compounds.
Method: Human placenta is obtained freshly after delivery and stripped of membranes and connective tissues. For storage, the material is frozen at −70° C. After thawing, all further steps are carried out at 4° C., while pH values are adjusted at 20° C. 400 g of the tissue is homogenized in 1.2 l of buffer A (50 mM Tris-HCl, pH 7.4, 0.25 M sucrose). The homogenate obtained is centrifuged at 10,000×g for 45 minutes. The supernatant is set aside and the pellet obtained is re-homogenized in 500 ml of buffer A. After centrifugation, the two supernatants obtained are combined and subjected to ultracentrifugation (100,000×g, 1 hour). The pellet obtained is resuspended in buffer A and centrifugation is repeated. The pellet obtained is suspended in 50 ml of 50 mM Tris-HCl, pH 7.4 and stored at −20° C. until further work-up. After thawing, microsomes are collected by ultracentrifugation (as described above) and are suspended in 50 ml of buffer B (10 mM Tris-HCl, pH 7.0, 1 mM EDTA, 2 mM 2-mercaptoethanol, 1% Triton X-100, 0.1% aprotinin). After 1 hour on ice with gentle agitation, the suspension is centrifuged (100,000×g, 1 hour). The supernatant containing the enzyme activity is collected and the pH is adjusted to 8.0 with 1 M Tris. […]
Plates are incubated at 37° C. for 1 hour. […] Fluorescence intensity is determined in a Titertek Fluoroskan II instrument with λex=355 nm and λem=460 nm. […]

Setting [3] is: first value, column head printed 0 micromol/litre (alignment unclear).
Where [4] appears, read: second value, column head printed 0.1 micromol/litre (alignment unclear).
Setting [5] is: third value, column head printed 0.3 micromol/litre (alignment unclear).

As for `CC(C)(C)OC(=O)N1CC2CCCCC(C1)C2C(=O)NS(=O)(=O)c1cc(C(F)(F)F)cc(C(F)(F)F)c1` (stereo not shown) [Example 217, 10-(3,5-bis-trifluoromethyl-benzenesulfonylaminocarbonyl)-8-aza-bicyclo[4.3.1]decane-8-carboxylic acid tert-butyl ester], in data set [1], the “anti-inflammatory activity (in words)” value was “anti-inflammatory activity”. In addition, the figures for the “inhibition in % (auricular weight, inflammatory swelling)” value in data set [1] (setting [3]), in data set [1] (setting [4]) and in data set [1] (setting [5]) were 20%, 36% and 45%, respectively.
For `CC(C)(C)OC(=O)N1CC2CCCCC(C1)C2C(=O)NS(=O)(=O)c1cc(C(F)(F)F)cc(C(F)(F)F)c1` (stereo not shown) [Example 218] the same measures were “anti-inflammatory activity”, 20%, 36% and 45%.
As for `NC(=O)c1ccc(C(F)(F)F)cc1N1CCC(CS(=O)(=O)NC(=O)c2cc(C(F)(F)F)cc(C(F)(F)F)c2)CC1` [Example 379], the melting point (as a rule, the temperature, or range, at which the solid turns liquid) fell in the range of 268 to 273 °C.
In the case of `C[C@]12CC[C@@H]3c4ccc(OS(N)(=O)=O)cc4CC[C@H]3[C@@H]1CCC2=O` [estrone sulfamate, estrone 3-O-sulfamate], the concentration for half-maximal inhibition (IC50) (as a rule, the concentration needed to halve the response being measured) in data set [2] is roughly 0.06 µM.
